Laboratory results reported in patent US10208044B2, “ACC inhibitors and uses thereof” (Gilead Apollo, LLC, priority 2013, dated 2019).
pIC50: −log10 of the molar value.

What was measured:
[1] = biological target: ACC2 (Homo sapiens (Human), UniProt O00763); assay: in vitro ACC2 inhibition assay (ADP-Glo); format: biochemical; conditions: 5 nM ACC2, 20 μM ATP, 20 μM acetyl-CoA
Experimental: An exemplary procedure for the in vitro ACC inhibition assay, which can be used to determine the inhibitory action of compounds of the invention toward either ACC1 or ACC2, follows. The ADP-Glo™ Kinase Assay kit from Promega is used. The ADP-Glo™ Kinase Assay is a luminescent ADP detection assay to measure enzymatic activity by quantifying the amount of ADP produced during an enzyme reaction. The assay is performed in two steps; first, after the enzyme reaction, an equal volume of ADP-Glo™ Reagent is added to terminate the reaction and deplete the remaining ATP. Second, the Kinase Detection Reagent is added to simultaneously convert ADP to ATP and allow the newly synthesized ATP to be measured using a luciferase/luciferin reaction. Luminescence can be correlated to ADP concentrations by using an […]. The detailed procedure is as follows. 50 μL of the compound being tested (600 uM in DMSO) is added to a 384-well dilution plate. The compound is diluted 1:3 in succession in DMSO for each row for 11 wells. 0.5 μL ACC2 working solution is added to 384-well white Optiplate assay plate. 0.5 μL diluted compound solution in each column from step 2 is added to the assay plate, each row containing 2 replicates. For the last 2 rows, add 0.5 μL negative control (DMSO) in one row and 0.5 μL positive control (compound I-97) in the other. The plates are incubated at room temperature for 15 minutes. […] Plates are incubated at room temperature for 40 minutes, then read on a Perkin Elmer EnVision 2104 plate reader for luminescence as Relative Light Units (RLU).
Data for each concentration, as well as the positive and negative controls are averaged, and the standard deviation calculated. Percent inhibition is calculated by the formula: 100× (average negative control−compound)/(average negative control−average positive control). The IC50 for each compound is calculated by fitting the data with a non-linear regression equation: Y=Bottom+(Top-Bottom)/(1+10^((Log IC50-X)*HillSlope)), where X is the log of compound concentration and Y is percent inhibition. […]

[2] = tested on: ACC2; conditions: ACC2 isolated from rat, mouse, monkey and human; cited from earlier work
[3] = tested on: ACC1; conditions: ACC1 isolated from rat, mouse, monkey and human; cited from earlier work

ACC2 (Homo sapiens (Human), UniProt O00763), sequence (O00763 whole entry, species assumed): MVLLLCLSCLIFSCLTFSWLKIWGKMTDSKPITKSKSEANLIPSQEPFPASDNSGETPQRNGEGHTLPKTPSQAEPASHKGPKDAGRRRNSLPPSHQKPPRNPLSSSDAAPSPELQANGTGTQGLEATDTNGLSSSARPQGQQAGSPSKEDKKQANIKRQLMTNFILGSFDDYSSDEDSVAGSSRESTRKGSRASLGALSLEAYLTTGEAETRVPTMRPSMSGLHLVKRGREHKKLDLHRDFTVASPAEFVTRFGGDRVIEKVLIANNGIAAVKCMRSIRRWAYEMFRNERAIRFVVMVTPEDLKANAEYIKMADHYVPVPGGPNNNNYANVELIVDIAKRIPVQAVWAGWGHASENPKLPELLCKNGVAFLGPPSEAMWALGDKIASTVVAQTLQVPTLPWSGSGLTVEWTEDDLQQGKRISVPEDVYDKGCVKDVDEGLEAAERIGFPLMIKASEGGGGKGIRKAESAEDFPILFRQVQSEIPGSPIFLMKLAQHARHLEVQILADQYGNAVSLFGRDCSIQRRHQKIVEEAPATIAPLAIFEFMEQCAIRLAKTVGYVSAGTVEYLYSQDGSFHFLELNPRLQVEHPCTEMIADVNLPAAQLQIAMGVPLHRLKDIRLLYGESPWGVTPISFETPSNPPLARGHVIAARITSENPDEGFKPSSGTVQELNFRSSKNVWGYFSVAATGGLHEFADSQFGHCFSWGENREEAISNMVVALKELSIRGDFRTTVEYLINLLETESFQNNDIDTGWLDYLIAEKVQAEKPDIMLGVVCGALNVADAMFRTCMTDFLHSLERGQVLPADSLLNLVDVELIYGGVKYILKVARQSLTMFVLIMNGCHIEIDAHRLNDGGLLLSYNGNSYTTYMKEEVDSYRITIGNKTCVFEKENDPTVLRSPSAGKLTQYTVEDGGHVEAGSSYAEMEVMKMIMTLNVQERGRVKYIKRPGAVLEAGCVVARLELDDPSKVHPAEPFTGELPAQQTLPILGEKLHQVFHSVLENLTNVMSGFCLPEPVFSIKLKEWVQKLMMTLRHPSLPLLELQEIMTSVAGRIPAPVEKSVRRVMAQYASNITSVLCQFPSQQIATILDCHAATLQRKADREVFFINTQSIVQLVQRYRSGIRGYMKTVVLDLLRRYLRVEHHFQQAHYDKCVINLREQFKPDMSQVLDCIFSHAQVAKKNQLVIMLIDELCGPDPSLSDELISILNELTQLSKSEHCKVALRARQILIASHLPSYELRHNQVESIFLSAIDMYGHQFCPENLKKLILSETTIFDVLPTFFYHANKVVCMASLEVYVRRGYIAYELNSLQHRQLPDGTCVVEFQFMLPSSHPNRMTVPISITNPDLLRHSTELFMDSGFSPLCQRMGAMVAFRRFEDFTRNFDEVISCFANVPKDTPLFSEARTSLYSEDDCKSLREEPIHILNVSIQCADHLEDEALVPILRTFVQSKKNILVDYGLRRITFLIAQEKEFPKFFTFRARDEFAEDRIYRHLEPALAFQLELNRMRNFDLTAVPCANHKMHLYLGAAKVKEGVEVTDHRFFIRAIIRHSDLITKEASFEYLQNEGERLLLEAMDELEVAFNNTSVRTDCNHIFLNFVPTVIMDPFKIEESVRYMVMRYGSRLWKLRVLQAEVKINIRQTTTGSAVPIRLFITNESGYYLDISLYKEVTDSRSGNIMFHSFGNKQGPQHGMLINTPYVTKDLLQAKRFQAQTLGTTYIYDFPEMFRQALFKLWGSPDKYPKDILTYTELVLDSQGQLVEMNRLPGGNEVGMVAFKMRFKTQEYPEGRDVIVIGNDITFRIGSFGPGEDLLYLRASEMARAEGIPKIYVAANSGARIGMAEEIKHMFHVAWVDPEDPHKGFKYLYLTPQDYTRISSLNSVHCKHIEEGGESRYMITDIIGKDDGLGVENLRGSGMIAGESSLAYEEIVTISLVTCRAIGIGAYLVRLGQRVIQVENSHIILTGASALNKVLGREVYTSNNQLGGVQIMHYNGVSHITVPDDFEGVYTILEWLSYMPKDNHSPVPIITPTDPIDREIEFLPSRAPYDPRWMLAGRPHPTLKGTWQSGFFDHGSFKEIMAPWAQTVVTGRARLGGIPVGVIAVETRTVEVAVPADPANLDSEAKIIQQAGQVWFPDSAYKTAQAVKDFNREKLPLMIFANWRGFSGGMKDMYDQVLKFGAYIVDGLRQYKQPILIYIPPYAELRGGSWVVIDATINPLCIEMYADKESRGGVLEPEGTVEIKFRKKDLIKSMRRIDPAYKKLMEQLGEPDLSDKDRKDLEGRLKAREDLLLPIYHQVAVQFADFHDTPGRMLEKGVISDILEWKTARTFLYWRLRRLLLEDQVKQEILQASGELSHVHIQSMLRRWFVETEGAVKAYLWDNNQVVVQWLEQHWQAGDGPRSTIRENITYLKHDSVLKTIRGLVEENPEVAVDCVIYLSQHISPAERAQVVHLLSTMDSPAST

In the case of COc1ccc(F)cc1[C@H](Cn1c(=O)n(C(C)(C)C(=O)O)c(=O)c2cc(-c3ncco3)ccc21)OC1CCOCC1 [Compound I-28, (R)-2-(1-(2-(5-fluoro-2-methoxyphenyl)-2-((tetrahydro-2H-pyran-4-yl)oxy)ethyl)-6-(oxazol-2-yl)-2,4-dioxo-1,2-dihydroquinazolin-3(4H)-yl)-2-methylpropanoic acid], the pIC50 [1] was 4.30 to 4.70.

For O=C(c1c2ccccc2cc2ccccc12)N1CCC(N2CCC[C@@H](C(=O)N3CCOCC3)C2)CC1 [CP-640186], the pIC50 [2] is given as ~7.22 and the pIC50 [3] is given as ~7.22.

In the case of COc1ccc(F)cc1[C@H](Cn1c(=O)n(C(C)(C)C(N)=O)c(=O)c2cc(-c3ncco3)ccc21)OC1CCOCC1 [Compound I-29, (R)-2-(1-(2-(5-fluoro-2-methoxyphenyl)-2-((tetrahydro-2H-pyran-4-yl)oxy)ethyl)-6-(oxazol-2-yl)-2,4-dioxo-1,2-dihydroquinazolin-3(4H)-yl)-2-methylpropanamide], the pIC50 [1] was 4.30 to 4.70.

COc1ccc(F)cc1[C@H](Cn1c(=O)n(C(C)(C)C(=O)O)c(=O)c2cc(Br)ccc21)OC1CCOCC1 [Compound I-30, (R)-2-(6-bromo-1-(2-(5-fluoro-2-methoxyphenyl)-2-((tetrahydro-2H-pyran-4-yl)oxy)ethyl)-2,4-dioxo-1,2-dihydroquinazolin-3(4H)-yl)-2-methylpropanoic acid] showed a pIC50 [1] of 4.30 to 4.70.
